Experiment [1] concerns healthy monocytes. Put plainly: Cytokines in healthy monocytes with CXCL4. The experiment is classed as cell-based, human.
Experiment [2] deals with purified pDCs from HDs or SSc patients. Description: IFN production by purified pDCs cultured with chemokine alone. On the set-up: IFN production, CXCL4 alone: dose or concentration left out as unconfirmed. It counts as cell-based, human. As to the method:
(§1) PBMCs were prepared using Ficoll-Paque density gradient from fresh blood under internal Institutional Review Board-approved protocols. pDCs were isolated as previously described (Guiducci et al. 2008) using either using negative depletion (Miltenyi Biotech) or following cell sorting using a BD IFNLUX cell sorter. As part of the gating strategy, neutrophils were excluded by FSC/SSC and cells positive for CD14 (CD3 and CD19 as well) were first excluded in order to prevent the contamination by TLR8 positive cells and then positively gated on HLA-DR, CD123 and BDCA4 to purify the pDCs. All BDCA4+ cells also express BDCA2 (results not shown). As a result, pure pDCs were obtained and no markers for neutrophils (CD66) or myeloid cells were found by PCR. B cells were FACS sorted as CD19+ and monocytes as CD14+ cells. PBMCs were depleted of pDCs using BDCA4 beads from Miltenyi. pDCs were cultured at 10,000-30,000 cells per well in a 96-round bottom plate and incubated at 37° C., 5% CO2 and 95% humidity. After 24 hours of culture, the supernatant was collected for ELISA or Mutiplex cytokine assays. In some culture conditions, cells were cultured with the PI3Kδ inhibitor, CAL-101 (Selleck chemicals) for 24 hours. The RNA-based TLR8 agonist, ORN8-L previously described (Guidacci et al. 2013) was synthetized by Chemgenes Corporation. For the TLR8 activation assay, pDCs were incubated in complete media alone, 200 μg/ml ORN8-L in complete media or 200 μg/ml ORN8-L+ 10 μg/ml CXCL4 (R&D systems).
Supernatant from pDCs 24 hour culture was used for quantification of secreted chemokines and cytokines and measured with the use of an enzyme-linked immunosorbent assay (ELISA) or Luminex multiplex-beads immunoassay. CXCL4 ELISA (Ray Biotech) and IFNα, IP-10, IL-6, TNF Luminex assay (Millipore) was performed according to the manufacturer's protocol. Due to the variability in the number of cells obtained from the different patients and so we could compare the values across donors, all results were normalized to 10,000 cells. Of note, for all donors, pDCs were plated between 10,000-30,000 cells.
When purified pDCs from HDs or SSc patients were cultured with CXCL4 alone ([…]), there was no effect on IFN production.
(§2) 5×10^5 PBMCs or pDC-depleted PBMCs were cultured in 96 wells plate and stimulated with 0.25 μM CpG DNA with or without 10 μg/ml CXCL4, CXCL10, CXCL12 or CCL5. Freshly isolated pDCs were resuspended at 5×10^4 cells/100 μl RPMI 1640 medium (Gibco) and stimulated with the 0.25 μM CpG with/without 10 μg/ml indicated chemokines. The supernatant was harvested after 18 h and IFN-α was measured by ELISA.

Experiment [3] concerns TLR9-mediated activation of human B cells. Description: TLR9-mediated activation of human B cells (CpG with or without chemokines). It counts as cell-based. Here is the method:
as §1
IL-6, TNF, and IL-10 gene levels were measured at 6 hours post culture using PCR. The secretion of cytokines/chemokines in the supernatants was quantified using Luminex. CD83, CD80, CD86 and CD69 expression was measured by flow cytometry at 24 hour post culture.
Human B cells were purified and cultured for 6 hours or 24 hours either with medium only, with CpG-C (at 0.15 μM) alone or with a combination of CpG-C and CXCL4 (at 10 μg/ml). IL-6 gene levels was measured at 6 hour post culture by PCR and CD83, CD80, CD86 and CD69 expression was measured by flow cytometry at 24 hour post culture.
Purified B cells from HDs were cultured in media alone (control), with either a CpG TLR9 agonist (0.15 μM) or with CpG and either CXCL4, CXCL10, CXCL9, CXCL4, CXCL7 or CXCL12 (all at 10 μg/ml). IL-6 was quantified in the supernatants by ELISA.
Purified B cells from HDs were cultured in media alone (control), with either a CpG TLR9 agonist (0.25 μM) or with CpG and CXCL4 or CXCL10 (10 μg/ml) alone or in the presence of the CXCR3 inhibitor AMG487 at 0, 0.1, 1 or 10 μM for 6 hours or 24 hours. IL-6 was quantified by ELISA at 24 hours and IL-6 and TNF gene expression levels were quantified by q-PCR at 6 hours and CD83, CD80, CD86 and CD69 expression was measured by flow cytometry at 24 hours post culture.

For experiment [4], the system named is PBMCs and pDC-depleted PBMCs. Description: IFN-α production in PBMCs and pDC-depleted PBMCs cultured with CpG and chemokines (ELISA). Conditions: CpG 0.25 μM + chemokine 10 μg/ml. It counts as cell-based, human. Here is the method: PBMCs were prepared using Ficoll-Paque density gradient (GE Healthcare) as previously described (Guiducci et al., 2008).
pDCs were isolated from PBMCs by positive selection using BDCA4-MicroBead Kit as previously described (Guiducci et al., 2008). pDC-depleted PBMC were prepared by removing BDCA4-positive cells from PBMC using microbeads.
as §2
As shown above, CXCL4 can increase IFN-α production by TLR9-activated pDCs. Thus it was tested whether other chemokines may impact TLR9 signaling in pDCs. Purified pDCs were left unstimulated (Unstim.) or cultured with CpG (0.25 μM) alone or with the indicated chemokines at 10 μg/ml. IFN-α secretion was quantified by ELISA. Strikingly, it was observed that a set of chemokines, including CXCL4, CXL10, CXCL12 and CCL5, were able to superinduce TLR9-induced response by pDCs (FIG. 18A), while they had no effect when used alone (results not shown). […] This also raised questions as to the specificity and mechanism for this effect. First, as other DNA sensors have been described to induce IFN-α in immune cells (Barrat et al., 2016), it was tested to see if these chemokines altered the specificity of the CpGs for TLR9 and if the IFN-α response was restricted to pDCs. Total PBMCs or PBMCs where pDCs were depleted (PBMC-ΔpDCs) were incubated with CpGs and either CXCL4, CXCL10, CXCL12 or CCL5 and IFN-α production was quantified by ELISA.
In general terms: An ELISA detects its analyte on a solid surface through an enzyme-linked reagent.

Experiment [5] deals with TLR7-mediated activation of pDCs. It counts as cell-based, human. Conditions: CXCL4 10 μg/ml; TLR7 agonist at suboptimal dose; similar in HDs and SSc patients.
Setting [6] is: CpG-B 0.15 μM + CXCL4 10 μg/ml, 6 hours.

“Also recorded” adds a separate entry of the source.

“CXCL4: small chemokine of the CXC family, 70-amino acid protein released from alpha-granules of activated platelets”: in experiment [1], the “IFN-inducible IP-10 in healthy monocytes” value was “reduces”, the “IL-6 in healthy monocytes” value is listed as “increases” and the “TNF in healthy monocytes” value is “increases”. Besides, the “IFN-α secretion by pDCs, chemokine used alone” value in experiment [2] (chemokine 10 μg/ml without CpG, results not shown) is listed as “no effect”. The “IFN production, CXCL4 alone” value in experiment [2] (purified pDCs from HDs or SSc patients, CXCL4 alone) is recorded as “no effect; also recorded: did not induce”. For the same substance, the “effect of inhibition of CXCR3 on the chemokine's inhibition of TLR9 in B cells” value in experiment [3] (CXCR3 inhibitor AMG487 0.1, 1 or 10 μM, CpG 0.25 μM, chemokine 10 μg/ml, 6 or 24 hours) is listed as “no effect”. For the same substance, in experiment [3] (CpG 0.15 μM, chemokine 10 μg/ml, ELISA), the “activation of B cells via TLR9 as shown by the production of IL-6” value is “inhibited”. Further, in experiment [3] (setting [6]), the “expression of IL-6 in B cells (PCR and protein)” value is on record as “negatively regulated”; the “expression of IL-10 in B cells (PCR and protein)” value is reported as “negatively regulated”; the “expression of TNF in B cells (PCR and protein)” value is “negatively regulated”. For the same substance, the “TLR9 activation of B cells (IL-6 gene; CD83, CD80, CD86, CD69)” value in experiment [3] (CpG-C 0.15 μM + CXCL4 10 μg/ml, 6 or 24 hours) is given as “negatively regulated”. Moreover, the “IFN-α production in absence of the pDCs (PBMC-ΔpDCs versus total PBMCs)” value in experiment [4] is “dramatic decrease”. Further, the “TLR7 response (IFN-α) of pDCs” value in experiment [5] was “little to no effect”.

For the origin of these results see patent US12427183B2, “Methods of treating cancer, infectious disease, and autoimmune disease using chemokines” (New York Society for the Relief of the Ruptured and …, priority 2016, dated 2025).
